Test results reported in patent EP4635969A1, “NOVEL GLUCOCORTICOID, METHOD FOR PREPARING SAME, AND USE THEREOF” (Tianjin Pharmaceutical Biotechnology Co., Ltd., priority 2022, dated 2024).
Read-outs that look alike come from different tables or passages of the source.

Assays:
[1] = target: T1, glucocorticoid receptor (GR) (Homo sapiens, UniProt P04150); assay: Assay for agonist activity on glucocorticoid receptor (luciferase reporter, HEK293 cells transfected with pBIND-GR plasmid); type: cell-based
T1 sequence (P04150 521-777): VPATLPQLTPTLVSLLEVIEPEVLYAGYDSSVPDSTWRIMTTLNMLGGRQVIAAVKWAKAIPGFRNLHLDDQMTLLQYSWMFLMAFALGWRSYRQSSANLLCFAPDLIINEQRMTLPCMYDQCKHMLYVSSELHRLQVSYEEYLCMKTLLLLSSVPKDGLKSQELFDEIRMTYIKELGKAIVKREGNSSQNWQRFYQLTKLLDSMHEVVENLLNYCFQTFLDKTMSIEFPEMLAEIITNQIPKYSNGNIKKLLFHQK
Summary of the method: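 Readout is luciferase luminescence, with EC50 derived by nonlinear fitting. Compounds ran at 10 concentrations (4-fold steps, top 10 µM, duplicate wells) on pBIND-GR-transfected HEK293 cells in phenol red-free DMEM plus 5% charcoal-stripped serum; 0.1% DMSO served as blank.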

[2] = Stability in animal lung tissue homogenate, skin tissue homogenate and aqueous humor; type: in vitro ADME
[3] = tested on: inflammatory cytokines IL-6 and IL-12; assay: Anti-asthma pharmacodynamic experiment: inflammatory cytokines in bronchoalveolar lavage fluid (ELISA); type: in vivo, female BALB/c mice; details: for Effects on inflammatory cytokines in bronchoalveolar lavage fluid of mice: compared with the model group
Experimental: Pharmacological Example 4: Pharmacodynamic Experiment on Anti-Asthma
The suspensions were stored at room temperature protected from light until use.
Positive control drug: Budesonide Suspension for Inhalation (specification: 2 mL: 1 mg; AstraZeneca Inc.; Lot No. : 327392) was diluted with injection-grade sodium chloride solution to 0.3 mg/ml as the positive control drug, and stored at room temperature protected from light until use.
Sixty female BALB/c mice underwent a one-week adaptive feeding period. Ten mice were randomly selected as the blank control group, while 50 mice were selected to establish asthma models.
From days 21 to 23 after sensitization, the mice in the model group and drug administration group were exposed to a 30-minute aerosol challenge with 5% OVA, while the mice in the blank control group were exposed to normal saline aerosol for the same duration.
At the end of airway hyperresponsiveness testing in mice, the mice were euthanized by cervical dislocation and fixed on a dissection tray. The abdomens and thoracic cavities of the mice were opened, and the skin and excess tissues of the neck were excised to expose the trachea of the mice. A small incision was made transversely on the trachea with a small scissors. A pre-treated 1 mL syringe needle was inserted and fastened with surgical thread. A 1 mL syringe was used to slowly inject 0.5 mL of pre-chilled phosphate-buffered saline (PBS) into the lungs of the mice, followed by slow aspiration. Each mouse was lavaged once, and a total of approximately 0.4 ml of lavage fluid was collected. The bronchoalveolar lavage fluid was centrifuged at 3000 rpm for 5 min. After centrifugation, the supernatant was aliquoted, and the levels of inflammatory cytokines IL-6 and IL-12 in the bronchoalveolar lavage fluid were determined using ELISA kits.

uveitis model rats = assay: Anti-uveitis pharmacodynamic experiment (LPS model): ocular pathological score; type: in vivo, male SD rats; details: for ocular abnormalities / ocular pathological score: compared with the model group
[4] = tested on: inflammatory cytokines (TNF-α); assay: Anti-uveitis pharmacodynamic experiment (LPS model): inflammatory cytokines in aqueous humor (ELISA); type: in vivo, male SD rats; details: values not given
Experimental: Pharmacological Example 5. Pharmacodynamic Experiment on Anti-Uveitis
Test samples: Compounds 23 and 26 were prepared as 5 mg/5 mL ophthalmic suspensions with reference to the formulation of Fluorometholone Eye Drops, and stored at room temperature protected from light until use.
Positive control drug: Fluorometholone Eye Drops (specification: 5 mL/5 mg; Santen Pharmaceutical (CHINA) Co., Ltd.; Lot No. : J20180068) was used as the positive control drug and stored at room temperature protected from light until use.
Fifty male SD rats underwent a one-week adaptive feeding period. The animals were randomly divided into 5 groups: Group 1 served as the blank control group, and Groups 2 to 5 were the model group, fluorometholone group, compound 23 group, and compound 26 group, respectively. Groups 2 to 5 were used to establish rat uveitis models by single subcutaneous injection of 1 mg/kg LPS (Salmonella; Sigma; Lot No. 0000164114) into the plantar tissue of the hindpaw. Salmonella endotoxin was dissolved in normal saline to prepare an injection solution at a concentration of 2 mg/mL, which was injected subcutaneously at 1 mg/kg into the plantar tissue of one paw of the rats. Group 1 was injected with an equal volume of normal saline.
After modeling, 40 µL of normal saline was administered to the eyes (bilateral) of the rats in the blank control group and model group, and 40 µL of the corresponding drugs were administered to the eyes (bilateral) of the […] in the compound 23 group, compound 26 group, and positive drug fluorometholone group, 3 times a day for 2 days. Table 8. Animal grouping and drug administration dosages
Thirty hours after modeling, aqueous humor was collected from both eyes of rats, and partial eyeball tissues of rats were collected. The level of the inflammatory cytokines (TNF-α) was detected using a rat ELISA assay kit.
Statistical analysis was performed using SPSS software. Measurement data were expressed as mean ± standard deviation. One-way ANOVA was used for intergroup comparisons. For data with homogeneous variance, LSD test was used; for data with heterogeneous variance, Dunnett-t test was used. A value of P < 0.05 was considered statistically significant.

[5] = tested on: dry eye syndrome model New Zealand rabbits; assay: Dry eye syndrome experiment (benzalkonium chloride model): tear film break-up time; type: in vivo, male New Zealand White rabbits; details: for Tear film break-up time (s) D3 / Tear film break-up time (s) D7 / Tear film break-up time (s) D15: 1 mg/mL, 50 µL/eye, 3 times a day for 14 days; for tear film break-up time: compared with the model group
[6] = tested on: dry eye syndrome model New Zealand rabbits; assay: Dry eye syndrome experiment (benzalkonium chloride model): corneal fluorescein sodium staining; type: in vivo, male New Zealand White rabbits; details: for Corneal fluorescein sodium staining score D3 / Corneal fluorescein sodium staining score D7 / Corneal fluorescein sodium staining score D15: 1 mg/mL, 50 µL/eye, 3 times a day for 14 days; for inflammatory response on the ocular surface / ocular symptoms: compared with the model group
Experimental: Pharmacological Example 6: Therapeutic Pharmacodynamic Experiment on Dry Eye Syndrome in New Zealand Rabbits
Positive control drug: Fluorometholone Eye Drops (specification: 5 mL/5 mg; Santen Pharmaceutical (CHINA) Co., Ltd.; Lot No.: 1FM6625) was used as the positive control drug and stored at room temperature protected from light until use.
Thirty male New Zealand White rabbits (conventional grade) were prepared. Six rabbits were randomly selected as the blank control group, and the remaining animals were administered 0.1% benzalkonium chloride to the left eye twice daily (morning and evening) , 10 µL/animal each time. […] During the administration, all animals except the blank control group were administered 10 µL of 0.1% benzalkonium chloride to the left eye once daily to maintain dry eye symptoms..
• Test time: D3, D7, D15; • Test animals: All animals were tested before grouping; all enrolled surviving animals were tested after administration; • Test method: 2 µL of 1% Fluorescein sodium was dropped into the conjunctival sac. After 5 s, the excess fluorescein was rinsed with 0.9% normal saline. The conjunctival staining was observed under a slit lamp with cobalt blue diffused light.
The normality and homogeneity of variance were tested by Levene's test. If there was no statistical significance (P > 0.05), one-way analysis of variance (ANOVA) was used for statistical analysis. If ANOVA was statistically significant (P ≤ 0.05), LSD test (parametric method) was used for comparative analysis. If the variance was heterogeneous (P ≤ 0.05), Kruskal-Wallis test was used. If the Kruskal-Wallis test was statistically significant (P ≤ 0.05), Dunnett's test (nonparametric method) was used for comparative analysis.

IL-17 = assay: Psoriasis experiment (imiquimod model): inflammatory cytokine in serum (ELISA); type: in vivo, mice; details: for level of IL-17 / inflammatory cytokines in psoriasis model mice: compared with the model group
Experimental: Positive control drug: Fluticasone Propionate Cream (specification: 0.05% × 15 g, Zhejiang Xianju Pharmaceutical Co. Ltd., Lot No. 211106), stored at room temperature protected from light until use.
Adult mice were selected, and the skin of 2 cm × 3 cm on the back of mice was locally depilated. The mice in the model group and drug administration group were applied with 62.5 mg of 5% imiquimod cream on their back for modeling, while the mice in the blank control group were applied with medical petroleum jelly on their back daily. The above procedures were performed once a day for 7 consecutive days.
The mice in the drug administration group were applied with the corresponding drugs on their backs daily at a dose of 0.2 g per mouse, while the blank control group and the model group were only applied with 0.2 g of the test sample drug matrix. One hour after drug administration, the drugs were wiped off with sterile cotton swabs, followed by the application of imiquimod. The above procedures were performed once a day for 7 consecutive days.
After the PASI scoring on day 8 of modeling, blood was collected from the orbital sinus of mice and centrifuged at 3000 rpm for 10 min. The supernatant was extracted to measure the level of IL-17. All procedures were performed following the instructions of the ELISA kit.
Statistical analysis was performed using SPSS software, and the results were expressed as mean ± standard deviation. One-way ANOVA was used for intergroup comparisons. For data with homogeneous variance, the LSD test was used; for data with heterogeneous variance, the Dunnett-t test was used. A value of P < 0.05 was considered statistically significant.

[7] = tested on: intraocular pressure of guinea pigs; assay: Adverse reactions of continuous ocular administration: intraocular pressure; type: in vivo
Summary of the method: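 Guinea pigs (300-350 g, both sexes) dosed bilaterally with 5 mg/5 mL ophthalmic suspensions, saline as blank; intraocular pressure measured before dosing and on days 7, 14, 21 and 28.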

[8] = HEK293 cells transfected with pBIND-GR, luciferase signal, read-out: GR agonist EC50
[9] = bronchoalveolar lavage fluid, 0.3 mg/mL, 50 µL intratracheally once daily for 3 days
[10] = GR agonist EC50 (nM), HEK293 cells transfected with pBIND-GR, luciferase signal

## C[C@]12C=CC(=O)C=C1CC[C@H]1[C@@H]3C[C@H]4OC(c5ccc(CSC6CCOC6=O)cc5)O[C@@]4(C(=O)CO)[C@@]3(C)C[C@H](O)[C@@]12Cl (stereo partly drawn) [Compound 23, (6aS,6bR,7S,8aS,8bS,11aR,12aS,12bS)-6b-Chloro-7-hydroxy-8b-(2-hydroxyacetyl)-6a,8a-dimethyl-10-(4-(((2-oxotetrahydrofuran-3-yl)thio)methyl)phenyl)-1,2,6a,6b,7,8,8a,8b,11a,12,12a,12b-do decahydro-4H-naphtho[2',1':4,5]indeno[1,2-d][1,3]dioxol-4-one]
[1]; EC50 of agonist activity, HEK293 reporter cells, read-out: Nuclear receptor enzyme activity (nM) GR
  EC50: 0.21 nM
[1]; [8]
  EC50: 0.21 nM
[2]
  stability in animal lung tissue homogenate, skin tissue homogenate, and aqueous humor: relatively stable
[3]; [9]
  IL-6: 11.1 ± 5.5 pg/mL
  IL-12: 7.0 ± 3.9 pg/mL
[3]
  Effects on inflammatory cytokines in bronchoalveolar lavage fluid of mice: extremely significantly decreased the levels of IL-6 and IL-12 in mice
Uveitis model rats; 1 mg/mL, 40 µL/eye, 3 times a day for 2 days
  Ocular pathological score: 7.0 ± 0.5
Uveitis model rats
  ocular abnormalities / ocular pathological score: significantly improved the ocular abnormalities and reduced the ocular pathological score
[4]
  inflammatory cytokines in aqueous humor: suppressed inflammatory cytokines in aqueous humor
[5]
  Tear film break-up time (s) D3: 45.67 ± 13.69 s
  Tear film break-up time (s) D7: 49.33 ± 8.91" s
  Tear film break-up time (s) D15: 50.67 ± 10.41" s
  tear film break-up time: significantly increased the tear film break-up time on day 15
[6]
  Corneal fluorescein sodium staining score D3: 2.17 ± 0.98
  Corneal fluorescein sodium staining score D7: 1.0 ± 0.98
  Corneal fluorescein sodium staining score D15: 1.0 ± 0.63"
  inflammatory response on the ocular surface / ocular symptoms: significantly inhibited the inflammatory response on the ocular surface on day 15
IL-17
  level of IL-17 / inflammatory cytokines in psoriasis model mice: significantly decreased the level of IL-17
IL-17; serum, day 8 of modeling, 0.2 g cream per mouse daily for 7 days
  IL-17: 19.56 ± 8.13 pg/mL
[7]
  intraocular pressure after continuous ocular administration: no abnormal intraocular pressure was observed
[7]; D0, before administration, 50 µL/eye (compounds and fluorometholone 1 mg/mL, loteprednol 5 mg/mL)
  Intraocular pressure of guinea pigs (mmHg) D0: 13.5 ± 0.6 mmHg
[7]; D7, 50 µL/eye (compounds and fluorometholone 1 mg/mL, loteprednol 5 mg/mL)
  Intraocular pressure of guinea pigs (mmHg) D7: 15.3 ± 1.7 mmHg
[7]; D14, 50 µL/eye (compounds and fluorometholone 1 mg/mL, loteprednol 5 mg/mL)
  Intraocular pressure of guinea pigs (mmHg) D14: 15.3 ± 1.5 mmHg
[7]; D21, 50 µL/eye (compounds and fluorometholone 1 mg/mL, loteprednol 5 mg/mL)
  Intraocular pressure of guinea pigs (mmHg) D21: 15.3 ± 2.2 mmHg
[7]; D28, 50 µL/eye (compounds and fluorometholone 1 mg/mL, loteprednol 5 mg/mL)
  Intraocular pressure of guinea pigs (mmHg) D28: 14.9 ± 1.6 mmHg

## C[C@]12C=CC(=O)C=C1[C@@H](F)C[C@H]1[C@@H]3C[C@H]4OC(c5ccc(CSC6CCOC6=O)nc5)O[C@@]4(C(=O)CO)[C@@]3(C)C[C@H](O)[C@@]12F (stereo partly drawn) [Compound 46, (25,6aS,6bR,78,8a8,8bS,11aR,12a8,12b8S)-2,6b-Difluoro-7-hydroxy-8b-(2-hydroxyacetyl)-6a,8a-dimethyl-10-(6-(((2-oxotetrahydrofuran-3-yl)thio)methyl)pyridin-3-yl)-1,2,6a,6b,7,8,8a,8b,11a,12, 12a,12b-dodecahydro-4H-naphtho[2',1':4,5]indeno[1,2-d][1,3]dioxol-4-one]
[1]; [10]
  EC50: 0.23 nM
[2]
  stability in animal lung tissue homogenate, skin tissue homogenate, and aqueous humor: relatively stable
[3]
  Effects on inflammatory cytokines in bronchoalveolar lavage fluid of mice: pharmacological effects similar to those of compound 23
Uveitis model rats
  ocular abnormalities / ocular pathological score: significantly improved ocular abnormalities
[4]
  inflammatory cytokines in aqueous humor: suppressed inflammatory cytokines in aqueous humor
[5]
  tear film break-up time: significantly increased the tear film break-up time
[6]
  inflammatory response on the ocular surface / ocular symptoms: significantly alleviated the ocular symptoms in dry eye syndrome model New Zealand rabbits
IL-17
  level of IL-17 / inflammatory cytokines in psoriasis model mice: significantly inhibited inflammatory cytokines in the skin of psoriasis model mice
[7]
  intraocular pressure after continuous ocular administration: no abnormal intraocular pressure observed

## C[C@]12C=CC(=O)C=C1CC[C@H]1[C@@H]3C[C@H]4OC(c5ccc(COC6CCOC6=O)cc5)O[C@@]4(C(=O)CO)[C@@]3(C)C[C@H](O)[C@@]12F (stereo partly drawn) [Compound 16, (6aS,6bR,7S,8aS,8bS,11aR,12aS,12bS)-6b-Fluoro-7-hydroxy-8b-(2-hydroxyacetyl)-6a,8a-dimethyl-10-(4-(((2-oxotetrahydrofuran-3-yl)oxy)methyl)phenyl)-1,2,6a,6b,7,8,8a,8b,11a,12,12a,12b-do decahydro-4H-naphtho[2',1':4,5]indeno[1,2-d][1,3]dioxol-4-one]
[1]; [10]
  EC50: 0.43 nM
[1]; Nuclear receptor enzyme activity (nM) GR, EC50 of agonist activity, HEK293 reporter cells
  EC50: 0.43 nM
[2]
  stability in animal lung tissue homogenate, skin tissue homogenate, and aqueous humor: relatively stable
[3]
  Effects on inflammatory cytokines in bronchoalveolar lavage fluid of mice: pharmacological effects similar to those of compound 23
Uveitis model rats
  ocular abnormalities / ocular pathological score: significantly improved ocular abnormalities
[4]
  inflammatory cytokines in aqueous humor: suppressed inflammatory cytokines in aqueous humor
[5]
  tear film break-up time: significantly increased the tear film break-up time
[6]
  inflammatory response on the ocular surface / ocular symptoms: significantly alleviated the ocular symptoms in dry eye syndrome model New Zealand rabbits
IL-17
  level of IL-17 / inflammatory cytokines in psoriasis model mice: significantly inhibited inflammatory cytokines in the skin of psoriasis model mice
[7]
  intraocular pressure after continuous ocular administration: no abnormal intraocular pressure observed

## C[C@]12C=CC(=O)C=C1CC[C@H]1[C@@H]3C[C@H]4OC(c5ccc(CSC6COC(=O)C6)cc5Cl)O[C@@]4(C(=O)CO)[C@@]3(C)C[C@H](O)[C@@]12F (stereo partly drawn) [Compound 20, (6aS,6bR,7S,8aS,8bS,11aR,12aS,12bS)-10-(2-Chloro-4-(((5-oxotetrahydrofuran-3-yl)thio)methyl)phenyl)-6b-fluoro-7-hydroxy-8b-(2-hydroxyacetyl)-6a,8a-dimethyl-1,2,6a,6b,7,8,8a,8b,11a,12,12a, 12b-dodecahydro-4H-naphtho[2',1':4,5]indeno[1,2-d][1,3]dioxol-4-one]
[1]; [8]
  EC50: 0.33 nM
[2]
  stability in animal lung tissue homogenate, skin tissue homogenate, and aqueous humor: relatively stable
[3]
  Effects on inflammatory cytokines in bronchoalveolar lavage fluid of mice: pharmacological effects similar to those of compound 23
Uveitis model rats
  ocular abnormalities / ocular pathological score: significantly improved ocular abnormalities
[4]
  inflammatory cytokines in aqueous humor: suppressed inflammatory cytokines in aqueous humor
[5]
  Tear film break-up time (s) D3: 37.00 ± 13.36 s
  Tear film break-up time (s) D7: 48.00 ± 9.94 s
  Tear film break-up time (s) D15: 48.28 ± 8.21 s
  tear film break-up time: significantly increased the tear film break-up time on day 15
[6]
  Corneal fluorescein sodium staining score D3: 2.33 ± 0.82
  Corneal fluorescein sodium staining score D7: 1.5 ± 0.55
  Corneal fluorescein sodium staining score D15: 1.1 ± 0.52
  inflammatory response on the ocular surface / ocular symptoms: significantly inhibited the inflammatory response on the ocular surface on day 15
IL-17
  level of IL-17 / inflammatory cytokines in psoriasis model mice: significantly inhibited inflammatory cytokines in the skin of psoriasis model mice
[7]
  intraocular pressure after continuous ocular administration: no abnormal intraocular pressure observed
